Experimental data as given in ChEMBL document CHEMBL4828721, “Substituted dienes prepared from betulinic acid - Synthesis, cytotoxicity, mechanism of action, and pharmacological parameters” (Eur J Med Chem, 2021).

Columns and labels:
CCRF-CEM = assay: Cytotoxicity against human CCRF-CEM cells assessed as reduction in cell viability measured after 72 hrs by MTS assay; format: functional, cell-based
CEM-DNR = assay: Cytotoxicity against daunorubicin resistant human CEM-DNR cells assessed as reduction in cell viability measured after 72 hrs by MTS assay; format: functional, cell-based
HCT-116 = assay: Cytotoxicity against human HCT-116 cells assessed as reduction in cell viability measured after 72 hrs by MTS assay; format: functional, cell-based; conditions: HCT-116, 72 h
[1] = Cytotoxicity against human HCT116 p53-null cells assessed as reduction in cell viability measured after 72 hrs by MTS assay; format: functional, cell-based
K562 = assay: Cytotoxicity against human K562 cells assessed as reduction in cell viability measured after 72 hrs by MTS assay; format: functional, cell-based; conditions: K562, 72 h
[2] = Cytotoxicity against paclitaxel resistant human K562-Tax cells assessed as reduction in cell viability measured after 72 hrs by MTS assay; format: functional, cell-based
A549 = assay: Cytotoxicity against human A549 cells assessed as reduction in cell viability measured after 72 hrs by MTS assay; format: functional, cell-based; conditions: A549, 72 h
U2OS = assay: Cytotoxicity against human U2OS cells assessed as reduction in cell viability measured after 72 hrs by MTS assay; format: functional, cell-based
BJ = assay: Cytotoxicity against human BJ cells assessed as reduction in cell viability measured after 72 hrs by MTS assay; format: cell-based
MRC5 = assay: Cytotoxicity against human MRC5 cells assessed as reduction in cell viability measured after 72 hrs by MTS assay; format: cell-based; conditions: MRC5, 72 h

| Structure (SMILES) | IC50 (CCRF-CEM) [µM] | IC50 (CEM-DNR) [µM] | IC50 (HCT-116) [µM] | IC50 [1] [µM] | IC50 (K562) [µM] | IC50 [2] [µM] | IC50 (A549) [µM] | IC50 (U2OS) [µM] | IC50 (BJ) [µM] | IC50 (MRC5) [µM] |
| --- | --- | --- | --- | --- | --- | --- | --- | --- | --- | --- |
| C=C(/C=C/c1cccc([N+](=O)[O-])c1)[C@@H]1CC[C@]2(C(=O)O)CC[C@]3(C)[C@H](CC[C@@H]4[C@@]5(C)CC[C@H](O)C(C)(C)[C@@H]5CC[C@]43C)[C@@H]12 | 12.4 | 25.3 | 37.5 | 35.5 | > 50 | 24.3 | 48.8 | 29.3 | > 50 | 45.1 |
| C=C(/C=C/c1ccc2ccccc2c1)[C@@H]1CC[C@]2(C(=O)O)CC[C@]3(C)[C@H](CC[C@@H]4[C@@]5(C)CC[C@H](O)C(C)(C)[C@@H]5CC[C@]43C)[C@@H]12 | 11.8 | 47 | 30.2 | 26.3 | > 50 | 45.8 | 32.9 | 27.2 | > 50 | 43.1 |
| C=C(/C=C/c1c(F)c(F)c(F)c(F)c1F)[C@@H]1CC[C@]2(C(=O)O)CC[C@]3(C)[C@H](CC[C@@H]4[C@@]5(C)CC[C@H](O)C(C)(C)[C@@H]5CC[C@]43C)[C@@H]12 | 22.1 | > 50 | 32.2 | 36.3 | 29.8 | > 50 | 32.2 | 30.2 | > 50 | 43.2 |
| C=C(/C=C/c1ccccn1)[C@@H]1CC[C@]2(C(=O)O)CC[C@]3(C)[C@H](CC[C@@H]4[C@@]5(C)CC[C@H](O)C(C)(C)[C@@H]5CC[C@]43C)[C@@H]12 | 19.7 | 27.7 | > 50 | > 50 | > 50 | 29.2 | > 50 | > 50 | > 50 | > 50 |
| C=CC(=C)[C@@H]1CC[C@]2(C(=O)O)CC[C@]3(C)[C@H](CC[C@@H]4[C@@]5(C)CC[C@H](O)C(C)(C)[C@@H]5CC[C@]43C)[C@@H]12 | 11.1 | 25.1 | 24.1 | 24.3 | 15.7 | 26.2 | 23.9 | 24.1 | 44.6 | 24.3 |
| C=C(/C=C/c1ccc(I)cc1)[C@@H]1CC[C@]2(C(=O)O)CC[C@]3(C)[C@H](CC[C@@H]4[C@@]5(C)CC[C@H](O)C(C)(C)[C@@H]5CC[C@]43C)[C@@H]12 | 16 | > 50 | 30.7 | 33.3 | > 50 | > 50 | > 50 | 32.2 | > 50 | 41.2 |
| C=C(/C=C/c1ccc(OC)cc1)[C@@H]1CC[C@]2(C(=O)O)CC[C@]3(C)[C@H](CC[C@@H]4[C@@]5(C)CC[C@H](O)C(C)(C)[C@@H]5CC[C@]43C)[C@@H]12 | 20.9 | > 50 | 42.4 | 48.9 | > 50 | 48.6 | > 50 | 48.6 | > 50 | > 50 |
| C=C(/C=C/c1ccc(Cl)cc1)[C@@H]1CC[C@]2(C(=O)O)CC[C@]3(C)[C@H](CC[C@@H]4[C@@]5(C)CC[C@H](O)C(C)(C)[C@@H]5CC[C@]43C)[C@@H]12 | 5.4 | 33.1 | 39.5 | 38.5 | 46.3 | 29.2 | 45.4 | 25.8 | > 50 | > 50 |
| C=C(/C=C/c1cccc(C(=O)O)c1)[C@@H]1CC[C@]2(C(=O)O)CC[C@]3(C)[C@H](CC[C@@H]4[C@@]5(C)CC[C@H](O)C(C)(C)[C@@H]5CC[C@]43C)[C@@H]12 | 20.1 | 33.9 | 43.4 | 43.1 | > 50 | 36.7 | > 50 | > 50 | > 50 | > 50 |
| C=C(/C=C/c1ccc(C(F)(F)F)cc1)[C@@H]1CC[C@]2(C(=O)O)CC[C@]3(C)[C@H](CC[C@@H]4[C@@]5(C)CC[C@H](O)C(C)(C)[C@@H]5CC[C@]43C)[C@@H]12 | 21.5 | 40.9 | 40.9 | 31.9 | 40.5 | 45.6 | 41.4 | 28.2 | 49.5 | 42.4 |
| C=C(C=O)[C@@H]1CC[C@]2(C(=O)O)CC[C@]3(C)[C@H](CC[C@@H]4[C@@]5(C)CC[C@H](O)C(C)(C)[C@@H]5CC[C@]43C)[C@@H]12 | 0.8 | 3.8 | 1.9 | 1.9 | 3.4 | 1.3 | > 50 | 1.3 | 6.7 | 2.6 |
| C=C(/C=C/C1CCCCC1)[C@@H]1CC[C@]2(C(=O)O)CC[C@]3(C)[C@H](CC[C@@H]4[C@@]5(C)CC[C@H](O)C(C)(C)[C@@H]5CC[C@]43C)[C@@H]12 | 8 | 45.7 | 15.2 | > 50 | > 50 | 43.6 | > 50 | > 50 | > 50 | > 50 |
| C=C(/C=C/c1cccc(F)c1)[C@@H]1CC[C@]2(C(=O)O)CC[C@]3(C)[C@H](CC[C@@H]4[C@@]5(C)CC[C@H](O)C(C)(C)[C@@H]5CC[C@]43C)[C@@H]12 | 11.7 | 23.1 | 23 | 21 | 21.6 | 21.9 | 28.7 | 27.7 | 41.5 | 32.1 |
| C=C(/C=C/c1cccc(C)c1)[C@@H]1CC[C@]2(C(=O)O)CC[C@]3(C)[C@H](CC[C@@H]4[C@@]5(C)CC[C@H](O)C(C)(C)[C@@H]5CC[C@]43C)[C@@H]12 | 9.5 | 21.4 | 24.7 | 22.3 | 24.9 | 23.6 | 36.5 | 18.2 | > 50 | 42.2 |
| C=C(/C=C/c1cccc(I)c1)[C@@H]1CC[C@]2(C(=O)O)CC[C@]3(C)[C@H](CC[C@@H]4[C@@]5(C)CC[C@H](O)C(C)(C)[C@@H]5CC[C@]43C)[C@@H]12 | 11.6 | > 50 | 27.3 | 29.5 | 25.2 | 48.4 | 38.7 | 28.4 | > 50 | > 50 |
| C=C(/C=C/c1ccccc1)[C@@H]1CC[C@]2(C(=O)O)CC[C@]3(C)[C@H](CC[C@@H]4[C@@]5(C)CC[C@H](O)C(C)(C)[C@@H]5CC[C@]43C)[C@@H]12 | 6.5 | 30.2 | 35.5 | 39.5 | 40 | 25.3 | 41.8 | 24.2 | > 50 | > 50 |
| C=C(/C=C/c1ccc(C#N)cc1)[C@@H]1CC[C@]2(C(=O)O)CC[C@]3(C)[C@H](CC[C@@H]4[C@@]5(C)CC[C@H](O)C(C)(C)[C@@H]5CC[C@]43C)[C@@H]12 | 23.8 | 27 | 39.1 | 43.3 | > 50 | 27.2 | > 50 | 44.1 | > 50 | 49.7 |
| C=C(/C=C/c1ccc(Br)cc1F)[C@@H]1CC[C@]2(C(=O)O)CC[C@]3(C)[C@H](CC[C@@H]4[C@@]5(C)CC[C@H](O)C(C)(C)[C@@H]5CC[C@]43C)[C@@H]12 | 22.4 | > 50 | 33.5 | 33.6 | 26 | > 50 | 32.5 | 29.7 | 43 | 33.7 |
| C=C(/C=C/c1cccc(C#N)c1)[C@@H]1CC[C@]2(C(=O)O)CC[C@]3(C)[C@H](CC[C@@H]4[C@@]5(C)CC[C@H](O)C(C)(C)[C@@H]5CC[C@]43C)[C@@H]12 | 12.1 | 21.6 | 35.1 | 29.4 | > 50 | 22.7 | > 50 | > 50 | > 50 | > 50 |
| C=C(/C=C/c1ccc(C(=O)O)cc1)[C@@H]1CC[C@]2(C(=O)O)CC[C@]3(C)[C@H](CC[C@@H]4[C@@]5(C)CC[C@H](O)C(C)(C)[C@@H]5CC[C@]43C)[C@@H]12 | 17.5 | 32 | 39 | 42.5 | > 50 | 39.2 | > 50 | 49 | > 50 | > 50 |
| C=C(/C=C/c1ccc(F)cc1)[C@@H]1CC[C@]2(C(=O)O)CC[C@]3(C)[C@H](CC[C@@H]4[C@@]5(C)CC[C@H](O)C(C)(C)[C@@H]5CC[C@]43C)[C@@H]12 | 4.9 | 31.4 | 35.4 | 41 | 36.2 | 29.8 | 40.6 | 23.9 | 44.6 | 38.3 |
